Patent US10703729B2, “Pyrazine derivative, and preparation method and medical use thereof” (GUANGZHOU MAGPIE PHARMACEUTICALS CO., LTD., priority 2015, dated 2020)

Tests used:
[1] = system: H9c2 cells; test: Protective effect on A/R-induced H9c2 cell damage (MTT); type: cell-based; conditions: hypoxia 12 hours, reoxygenation 4 hours, 490 nm, FIG. 17
Procedure: H9c2 cells were seeded in a 96-well plate and incubated at 37° C. in a 5% CO2 incubator for 24 hours, and then hypoxia was indicated. IND-023 of the drug group was diluted with KRB buffer as an anoxic solution into desired concentrations. The model group, after added only KRB solution with 50 μL in each well, was placed into the hypoxic box to be incubated for 12 hours, whereas, the blank group, after the initial medium was replaced with serum-free high glucose DMEM, was placed into a normal incubator. After the end of hypoxia, the medium of the model group was changed to serum-free high glucose DMEM. The drug group was diluted with high-glucose DMEM to corresponding concentrations with 100 μL each well, and was placed in a normal incubator and cultured for 4 hours. After the end of reoxygenation, the existing medium was removed and MTT was added. After 4 hours, the OD value was measured at 490 nm to calculate cell viability.

[2] = system: H9c2 cells; test: Protective effect on IAA-induced H9c2 cell damage (MTT); type: cell-based; conditions: pre-treatment 1 hour, IAA 50 μM 4 hours, 490 nm, FIG. 16
Procedure: H9c2 cells were seeded in a 96-well plate and incubated for 24 hours at 37° C. in a 5% CO2 incubator. Then, 100 μL it of IND-023 in different concentrations was added and subjected to prepreparation for 1 hour. After induction with IAA (50 μM) for 4 hours, MTT was added, and the absorbance was measured at 490 nm with a microplate reader.

[3] = system: H9c2 cells; test: Protective effect on t-BHP-induced H9c2 cell injury (MTT); type: cell-based; conditions: pre-protected 1 hour, t-BHP 150 μM 12 hours, 490 nm, FIG. 18
Procedure: H9c2 cells were seeded in a 96-well plate in a density of 1×10^4 cells/well, and cultured in a DMEM complete medium for 24 hours. IND-023 was pre-protected for 1 hour, and then diluted t-BHP 150 μM with serum-free high glucose DMEM and induced for 12 hours. MTT (5 mg/mL) was added and cultured for 4 hours. Then, the medium was aspirated, and 100 μL, of DMSO was added to each well. The cells were homogenized by shaking in a shaking table and the absorbance was measured at a wavelength of 490 nm with a BioTek microplate reader to calculate the cell viability.

[4] = system: SD rat myocardial infarction model; test: SD rat myocardial infarction model; type: in vivo; conditions: 20 mg/kg via tail vein after modeling, read at 24 hours; FIG. 19
Procedure: A male SD rat was anesthetized with 2.5% isoflurane and fixed. Tracheotomy was performed, and the rat was connected to a ventilator and was cut at the position 0.5 cm on the left side of the sternal along the 2nd intercostal space and the 4th intercostal space 4. The subcutaneous tissue and muscle were bluntly dissected, and the chest was opened at the 4th intercostal space with forceps to expose the chest. The pericardium was carefully opened. The anterior descending branch of the left coronary artery was ligated with non-invasive suture needle No. 8 at the position of 2 to 3 mm from the lower edge of the left atrial appendage. The elevation of the ST segment of lead II ECG after the ligation was taken as an indication of a successful model. Throughout the experiment process, the rat was placed and kept warm on a 37° C. thermostatic table, and after waking up, the rat was placed into the original cage to continue feeding. After successful modeling, the rat was injected via tail vein for 15 min to give 20 mg/kg of IND-023 with a solution of 5% ethanol+5% polyethylene glycol+90% normal saline. […]

[5] = Wang Tingfang, Journal of Pharmaceutical Practice 2011; cited from earlier work

| Structure (SMILES) | protective effect on A/R-induced H9c2 cell injury [1] | protective effect on IAA-induced H9c2 cell injury [2] | protective effect on t-BHP-induced H9c2 cell injury [3] | protective effect on SD rat myocardial infarction model [4] | bioavailability [5] |
| --- | --- | --- | --- | --- | --- |
| Cc1nc(COC(=O)C(O)Cc2ccc(O)c(O)c2)c(C)nc1COC(=O)C(O)Cc1ccc(O)c(O)c1 (centres unmarked) [IND-023] | significant protective effect | significant protective effect | significant protective effect | protective effect | – |
| O=C(O)[C@H](O)Cc1ccc(O)c(O)c1 [Danshensu, Tanshinol] | – | – | – | – | 9.53-14.18% |
